# Experimental data: the supplement of paper PMC10307832
# Assays:
# Assay in all cases: relative viability (nuclei count vs DMSO), 5 days (fraction); higher = more cells survive
# [1] = compound: CC(C)C[C@@H](C(=O)N[C@H](C(=O)OC1CCCC1)c1ccccc1)[C@H](O)C(=O)NO [Tosedostat] + Cc1cc(Nc2cc(N3CCN(C)CC3)nc(Sc3ccc(NC(=O)C4CC4)cc3)n2)n[nH]1 [Tozasertib] (partner 0.1 µM)
# How it was run: (§1)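 Lung cancer cell lines were pin-tool dosed in 1536-well plates on the day after seeding, with either a lone drug or a fixed anchor-drug dose plus five library-drug doses (not always all listed) in √10 steps. Nuclei were counted on 4× images after 5 days. Relative viability is the ratio of treated-well to vehicle-well nuclei counts, with each value a median of duplicate plates.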
# [2] = compound: CC(C)C[C@@H](C(=O)N[C@H](C(=O)OC1CCCC1)c1ccccc1)[C@H](O)C(=O)NO [Tosedostat] + CS(=O)(=O)N1CCN(Cc2cc3nc(-c4cccc5[nH]ncc45)nc(N4CCOCC4)c3s2)CC1 [Pictilisib] (partner 1 µM)
# How it was run: as §1
# [3] = compound: CC(C)C[C@@H](C(=O)N[C@H](C(=O)OC1CCCC1)c1ccccc1)[C@H](O)C(=O)NO [Tosedostat] + C[C@]1(O)C[C@@H](c2nc(-c3ccc4ccc(-c5ccccc5)nc4c3)c3c(N)nccn32)C1 [Linsitinib] (partner 1 µM)
# How it was run: as §1
# [4] = compound: CC(C)C[C@@H](C(=O)N[C@H](C(=O)OC1CCCC1)c1ccccc1)[C@H](O)C(=O)NO [Tosedostat] + COc1cccc2cc(-c3nc([C@H]4CC[C@H](C(=O)O)CC4)n4ncnc(N)c34)[nH]c12 [OSI-027] (partner 0.5 µM)
# How it was run: as §1
Cell Line,relative viability ([1]; first compound 0.02 µM),relative viability ([1]; first compound 0.06325 µM),relative viability ([1]; first compound 0.2 µM),relative viability ([1]; first compound 0.6325 µM),relative viability ([1]; first compound 2 µM),relative viability ([2]; first compound 0.02 µM),relative viability ([2]; first compound 0.06325 µM),relative viability ([2]; first compound 0.2 µM),relative viability ([2]; first compound 0.6325 µM),relative viability ([2]; first compound 2 µM),relative viability ([3]; first compound 0.02 µM),relative viability ([3]; first compound 0.06325 µM),relative viability ([3]; first compound 0.2 µM),relative viability ([3]; first compound 0.6325 µM),relative viability ([3]; first compound 2 µM),relative viability ([4]; first compound 0.02 µM),relative viability ([4]; first compound 0.06325 µM),relative viability ([4]; first compound 0.2 µM),relative viability ([4]; first compound 0.6325 µM),relative viability ([4]; first compound 2 µM)
LU99A,0.253,0.284,0.277,0.242,0.225,0.343,0.317,0.295,0.258,0.221,0.508,0.555,0.528,0.561,0.504,0.324,0.286,0.292,0.312,0.249
LXF-289,0.198,0.167,0.169,0.122,0.0708,0.818,0.766,0.752,0.784,0.676,1.02,0.879,1.02,0.946,0.994,0.904,0.799,0.808,0.692,0.561
NCI-H23,0.491,0.347,0.41,0.26,0.294,0.523,0.466,0.48,0.451,0.324,0.612,0.56,0.548,0.474,0.416,0.702,0.599,0.683,0.494,0.372
NCI-H322M,0.461,0.468,0.434,0.419,0.341,0.532,0.408,0.45,0.486,0.391,0.8,0.902,0.894,0.877,0.839,0.606,0.571,0.567,0.556,0.509
NCI-H358,0.0914,0.1,0.0977,0.0822,0.0804,0.336,0.366,0.287,0.239,0.327,0.944,0.788,0.544,0.548,0.507,0.925,0.745,0.362,0.349,0.329
NCI-H441,0.911,0.567,0.561,0.542,0.423,0.549,0.443,0.461,0.379,0.328,0.487,0.544,0.473,0.402,0.403,0.609,0.593,0.632,0.433,0.437
NCI-H460,0.313,0.502,0.687,0.325,0.264,0.31,0.407,0.353,0.365,0.365,0.845,0.84,0.857,0.849,0.942,0.817,0.604,0.595,0.647,0.679
NCI-H520,0.448,0.478,0.438,0.399,0.542,0.261,0.277,0.3,0.283,0.396,1.13,0.962,0.944,1.02,1.06,0.215,0.285,–,0.335,0.22
NCI-H596,0.893,0.875,0.791,0.934,0.729,0.424,0.471,0.385,0.446,0.388,1.21,1.07,1.22,1.05,1.06,0.826,0.924,0.909,0.564,0.629
NCI-H647,0.37,0.262,0.339,0.175,0.367,0.563,0.444,0.553,0.429,0.493,1.07,1.2,1.01,1.12,1.24,0.541,0.667,0.515,0.4,0.585
NCI-H650,0.839,0.78,0.684,0.602,0.471,0.933,0.736,0.709,0.696,0.578,0.853,0.84,0.679,0.656,0.494,0.611,0.5,0.454,0.455,0.364
NCI-H661,0.354,0.353,0.374,0.395,0.342,0.399,0.444,0.366,0.432,0.301,0.552,0.592,0.555,0.494,0.495,0.706,0.767,0.714,0.648,0.561
NCI-H727,0.586,0.535,–,0.45,0.415,0.36,0.267,0.276,0.373,0.29,0.264,0.266,0.272,0.168,0.322,0.583,0.636,–,0.492,0.419
NCI-H838,0.273,0.262,0.305,0.283,0.255,0.522,0.5,0.456,0.652,0.638,1.09,0.982,1.02,1.08,1.31,0.383,0.413,0.445,0.503,0.404
NCI-H1355,0.63,0.55,0.584,0.533,0.442,0.449,0.441,0.352,0.329,0.354,0.717,0.839,0.762,0.701,0.726,0.377,0.399,0.442,0.413,0.351
NCI-H1395,0.757,0.748,0.768,0.678,0.675,0.627,0.799,0.601,0.606,0.567,0.993,0.944,1.03,0.821,0.782,0.59,0.618,0.644,0.672,0.621
